In patent US6469028B1, “Synthesis and use of retinoid compounds having negative hormone and/or anatgonist activities” (Allergan, Inc., priority 1995, dated 2002):

Key:
RARγ [1] = molecular target: T1, RARγ (Homo sapiens, UniProt P13631); experiment: Example 16: transactivation, MTV-TREp-Luc in HeLa cells; assay type: cell-based
T1 sequence (P13631 1-454): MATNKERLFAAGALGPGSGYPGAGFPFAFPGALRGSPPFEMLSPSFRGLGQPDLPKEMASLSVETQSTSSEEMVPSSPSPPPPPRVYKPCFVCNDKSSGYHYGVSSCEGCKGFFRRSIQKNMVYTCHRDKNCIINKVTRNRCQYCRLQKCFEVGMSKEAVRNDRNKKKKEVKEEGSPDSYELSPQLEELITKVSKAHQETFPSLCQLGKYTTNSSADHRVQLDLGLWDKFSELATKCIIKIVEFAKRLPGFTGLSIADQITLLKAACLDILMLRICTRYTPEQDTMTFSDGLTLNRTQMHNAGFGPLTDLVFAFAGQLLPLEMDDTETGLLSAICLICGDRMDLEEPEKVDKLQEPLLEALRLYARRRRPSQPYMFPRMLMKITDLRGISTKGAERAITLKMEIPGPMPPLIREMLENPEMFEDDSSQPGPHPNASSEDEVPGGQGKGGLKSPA

rabbits = experiment: Example 24: rabbit model of proliferative vitreoretinopathy (PVR); assay type: in vivo
[2] = molecular target: T2, RAR-α and RXR-α with DR-5 RARE probe (Homo sapiens, UniProt P10276); experiment: Example 9: gel shift analysis; assay type: biochemical; details: prebound with AGN 193109 (10^−6 M)
T2 construct: made in house; host or cells: reticulocyte lysate in vitro transcription-translation
T2 sequence (P19793 whole entry partner, one chain of several): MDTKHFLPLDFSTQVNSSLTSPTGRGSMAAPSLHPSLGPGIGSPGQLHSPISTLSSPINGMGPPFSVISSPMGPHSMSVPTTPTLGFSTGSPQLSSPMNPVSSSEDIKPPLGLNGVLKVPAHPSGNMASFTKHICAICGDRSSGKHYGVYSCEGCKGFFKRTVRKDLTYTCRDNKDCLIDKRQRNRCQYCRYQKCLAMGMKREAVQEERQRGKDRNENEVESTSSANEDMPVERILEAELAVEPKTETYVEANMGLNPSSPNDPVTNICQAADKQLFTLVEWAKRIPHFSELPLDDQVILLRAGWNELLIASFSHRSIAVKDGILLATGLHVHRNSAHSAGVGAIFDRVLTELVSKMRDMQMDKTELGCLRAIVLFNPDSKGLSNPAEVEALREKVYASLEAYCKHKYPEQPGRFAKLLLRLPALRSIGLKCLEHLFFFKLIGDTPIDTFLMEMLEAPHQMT
From the text: In vitro translated RAR-α was produced essentially as described under Example 8, except that ^35S-labeled methoinine was omitted. In vitro translated RXR-α was similarly produced using a pBluescript(II)(SK)-based vector containing the RXR-α cDNA described by Mangelsdorf, et al. in Nature 345:224-229 (1990) as the template for generating in vitro transcripts. […] The binding mixture was electrophoresed on a non-denaturing polyacrylamide gel and autoradiographed according to standard laboratory procedures. A single retarded species appearing on the autoradiograph that was common to all the lanes on the gel represented an undefined probe-binding factor present in the reticulocyte lysate. Only the RAR/RXR combination gave rise to a retinoid receptor-specific retarded species. Neither RAR alone nor RXR alone bound the probe to produce this shifted species.

guinea pigs = experiment: Example 5: premature epiphyseal plate closure (bone toxicity); assay type: in vivo; details: AGN 191183 0.06 mg/ml + AGN 193109 0.34 mg/ml (5-fold molar excess), osmotic pump, 14 days
Description: The osmotic pumps are designed by the manufacturer to deliver ˜5 μl of solution per hour continuously for 14 days.
The animals were euthanized by carbon dioxide asphyxiation 14 days after implantation. The left tibia was removed and placed in 10% buffered formalin. The tibias were decalcified by exposure to a formic acid/formalin solution for 3-4 days, and paraffin sections were prepared. Sections were stained with hematoxylin and eosin by standard methods. The proximal tibial epiphyseal plate was examined and scored as closed or not closed. Epiphyseal plate closure is defined for this purpose as any interruption of the continuity of the epiphyseal growth plate cartilage, i.e., replacement by bone and/or fibroblastic tissue.

[3] = test system: tissue transglutaminase (TGase) gene in HL-60 cells; experiment: TGase activity in HL-60 cells; assay type: cell-based; details: TGase induced by RXR agonists
From the text: This same mechanism can account for the observation that AGN 193109 can repress the activity of the tissue transglutaminase (TGase) gene in HL-60 cells. A retinoid response element consisting of three canonical retinoid half sites spaced by 5 and 7 base pairs has been identified in the transcription control region of this gene. While TGase can be induced by RXR-selective agonists, it is not responsive to RAR-selective agonists. The TGase retinoid response element is bound by an RAR/RXR heterodimer (Davies et al. in Press). […] This AGN 193109 mediated repression can be accounted for by the ability of this negative hormone to sequester NCPs to the RAR component of the heterodimer, thereby repressing the activity of the associated RXR.

RARα = molecular target: T3, RARα (Homo sapiens, UniProt P10276); experiment: Example 7: inhibition of RAR transactivation by ATRA, CV-1 cells; assay type: cell-based; set-up: host or cells: TNT-coupled reticulocyte lysate in vitro transcription-translation; details: equal doses of AGN 193109 and ATRA (10 nM ATRA)
T3 sequence (P10276 1-462): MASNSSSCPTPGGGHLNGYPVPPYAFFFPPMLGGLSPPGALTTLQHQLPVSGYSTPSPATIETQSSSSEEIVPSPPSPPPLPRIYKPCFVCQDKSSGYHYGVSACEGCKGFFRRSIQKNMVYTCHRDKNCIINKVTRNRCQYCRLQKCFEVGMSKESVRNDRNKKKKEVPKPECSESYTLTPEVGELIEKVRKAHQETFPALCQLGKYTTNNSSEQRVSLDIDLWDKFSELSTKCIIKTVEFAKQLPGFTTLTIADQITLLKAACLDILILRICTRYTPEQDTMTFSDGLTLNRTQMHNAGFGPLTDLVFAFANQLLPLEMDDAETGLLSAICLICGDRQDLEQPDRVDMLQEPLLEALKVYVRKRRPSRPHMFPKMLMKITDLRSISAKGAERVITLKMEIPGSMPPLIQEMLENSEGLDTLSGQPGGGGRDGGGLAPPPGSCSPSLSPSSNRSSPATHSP
Description: Eukaryotic expression vectors pRShRAR-α (Giguere et al. Nature 330:624 (1987)), pRShRAR-β (Benbrook et al. Nature 333:669 (1988)) and pRShRAR-γ (Ishikawa et al. Mol. Endocrinol. 4:837 (1990)) were cotransfected with the Δ-MTV-Luc reporter plasmid described by Hollenberg et al. (Cell 55:899.(1988)). […] Calcium phosphate transfections were carried out exactly as described in Example 6. […] Cell lysates and luciferase activity measurements were also performed as in Example 6.

RARγ [4] = molecular target: T1, RARγ; experiment: Transactivation in CV-1 cells, ΔMTV-TREp-Luc reporter; assay type: cell-based; set-up: expressed in transfected cells; host or cells: green monkey CV-1 cells; details: 10^−9 to 10^−6 M, 18 hours

Cc1ccc(C2=CCC(C)(C)c3ccc(C#Cc4ccc(C(=O)O)cc4)cc32)cc1 [Compound 60, 4-[(5,6-dihydro-5,5-dimethyl-8-(4-methylphenyl)-2-naphthalenyl)ethynyl]benzoic acid]
inhibition of the response to 10^−9 M AGN 191183 (RARγ [1]; 10^−9 M AGN 193109, HeLa cells, preliminary experiments): relatively ineffective
luciferase activity (RARγ [1]; AGN 193109 10^−11 and 10^−10 M with AGN 191183 10^−10 or 10^−9 M): stimulation of luciferase activity over that of AGN 191183 alone
frequency and severity of tractional retinal detachment (rabbits; AGN 193109 100 μg + retinoic acid 10 μg intravitreal): significantly reduced frequency and severity of retinal detachment
incidence and severity of retinal detachment (rabbits; second study, AGN 193109 100 μg + thyroid hormone 100 μg): significantly reduced incidence and severity of retinal detachment
retinal detachment compared with control rabbits (rabbits; second study, single agent 100 μg intravitreal): does not inhibit retinal detachment
RAR/RXR retarded species on DR-5 RARE probe [2]: did not diminish this interaction
epiphyseal plate closure (guinea pigs): completely blocked AGN 191183-induced bone toxicity
TGase activity [3]: able to repress TGase activity induced by RXR agonists
inhibition of luciferase activity relative to ATRA alone (RARα): greater than 50%
EC50 (nM) RAR-γ (RARγ [4]): No Activity
